Publication PMC4635624, “In vitro and in vivo single-agent efficacy of checkpoint kinase inhibition in acute lymphoblastic leukemia” (Journal of Hematology & Oncology, 2015)

Experiments:
Type in all cases: cell-based, human
[1] = tested on: c-Jun in B-/T-ALL cell lines; assay: Western blot against c-Jun; conditions: after treatment; response heterogeneous in T-ALL cell lines
Procedure: In order to identify gene expression changes specifically correlated with Chk1 inhibition and to better elucidate the mechanism of action of Chk1 inhibitor, gene expression profiling (GEP) analysis was performed by microarray on treated B/T-ALL cell lines (BV-173, SUP-B15, REH, NALM-6, NALM-19, MOLT-4, RPMI-8402, and CCRF-CEM) and on their untreated counterparts (DMSO 0.1 %) after 24 h of drug exposure. […] To identify peculiar critical pathways affected by Chk1 inhibition, the differentially expressed genes were analyzed in terms of biological function using the MetaCore pathway mapping software (GeneGo Inc.) which categorizes genes in pathway maps, Gene Ontology (GO) cellular processes, and cellular and molecular process networks. […] Finally, the three top scored process networks impaired by the treatment with Chk1 inhibitor were as follows: the DNA damage checkpoint, the S phase of cell cycle, and the apoptosis, confirming the specificity of treatment on its target pathways (Additional file 4). […]
To gain insight into the molecular mechanisms responsible for cell death following treatment, functional analyses by Western blot were performed. […] Finally, all these antibodies were detected using the enhanced chemiluminescence kit ECL (GE) and the compact darkroom ChemiDoc-It (UVP).

leukemia cell lines = assay: PARP-1 cleavage by Western blot; conditions: 24 h of drug exposure; undetectable with DMSO 0.1 %
Procedure: In order to assess whether cytotoxicity was correlated to increased susceptibility to apoptosis, B-/T-ALL cell lines were incubated with increasing concentrations of drug (0.1, 0.5, and 1 μM and 0.05, 0.1, and 0.2 μM only for BV-173 and RPMI-8402, respectively) for 24 and 48 h. […] The induction of apoptosis by PF-00477736 was also assessed by the detection of poly (ADP-ribose) polymerase (PARP) cleavage by Western blot analysis.
(§1) To gain insight into the molecular mechanisms responsible for cell death following treatment, functional analyses by Western blot were performed. Leukemia cell lines were plated in six-well plates at 500,000 cell/1 ml with increasing concentrations of drug for 24 h and incubated at 37 °C. After the treatment, the cells were collected and lysate using a specific buffer made of KH2PO4 0.1 M (pH 7.5), Igepal 1 % (NP-40), β-glicerofosfato 0.1 mM, and complete protease inhibitor cocktail 1× (Roche Diagnostics). […] Finally, all these antibodies were detected using the enhanced chemiluminescence kit ECL (GE) and the compact darkroom ChemiDoc-It (UVP).

BV-173 cells = assay: γ-H2A.X immunofluorescence analysis
Procedure: The so-called hyper-γ-H2A.X-positive cells loose the typical foci signal of γ-H2A.X and emit a much higher and diffuse signal of γ-H2A.X positivity.
NALM-6 and BV-173 cells were seeded to poly-D lysine-coated slides, fixed with 4 % PFA (paraformaldehyde), and stained at 37 °C with a mouse anti-H2A.X-Phosphorylated Alexa 647 conjugated antibody (BioLegend). Then, they were treated with DAPI (4.6 diamidino-2-phenylindole; Sigma Aldrich), and the slides were mounted with Mowiol (Calbiochem). Images were acquired with wide field fluorescence microscope Olympus BX61 fully motorized driven by Metamorph software, and the analysis was performed using the freeware ImageJ software.

[2] = tested on: Chk1 pathway in normal bone marrow mononuclear cells; assay: Western blot analysis in normal cells; conditions: in contrast to leukemia cells
[3] = tested on: Chk1 pathway (Chk1-Cdc25-Cdc2) in BV-173 and NALM-6 cells; assay: Western blot analysis of Chk1 pathway
Text: In order to assess whether PF-00477736 efficiently targeted Chk1 pathway, we examined the changes in the downstream phosphorylation of the phosphatase Cdc25C and cyclin-dependent kinase, Cdc2. Moreover, Chk1 itself and γ-H2A.X, which is a marker of stalling replication forks and checkpoint abrogation-induced apoptosis, have been assessed. Functional analyses were initially performed on the most sensitive (BV-173) and the most resistant (NALM-6) B-ALL cell lines, as determined by the viability and apoptosis analyses. Specifically, BV-173 cells were treated with 0.05, 0.1, and 0.2 μM and NALM-6 with 0.1, 0.5, and 1 μM of PF-00477736 for 24 h (Fig. 3a). In the second analysis, BV-173 and NALM-6 cells were treated with the dose of PF-00477736 that goes near to the IC50 (0.1 μM for BV-173 and 1 μM for NALM-6) for 18, 24, 30, and 48 h (Fig. 3b). Thereafter, the same molecular targets have been assessed on all B- and T-ALL cell lines using the dose that goes near to the IC50 (Additional file 1: Figure S4). Active Chk1 phosphorylates Cdc25C at serine 216 throughout the interphase and upon G2 checkpoint activation. This leads to the nuclear export of Cdc25C and its subsequent cytoplasmic sequestration by 14-3-3 protein, which prevents the activation of the downstream target of Cdc25C, the cyclin B/Cdc2 kinase that is responsible for G2/M transition. […] Although the increment of the phosphorylated forms of Chk1 (Ser317 and Ser345) as a consequence of genomic damage amplification, the complete inhibition of Chk1 functionality was confirmed by the progressive reduction of the auto-phosphorylated form of Chk1 (Ser296) in an early time point analysis.
as §1

## Cn1cc(-c2[nH]c3cc(NC(=O)[C@H](N)C4CCCCC4)cc4c3c2C=NNC4=O)cn1 [PF-00477736]
[1]
  c-Jun protein levels: c-Jun protein levels increased in all B-ALL cell lines
Leukemia cell lines
  PARP-1 cleavage: PARP-1 cleavage band at 89 kDa was observed
BV-173 cells; BV-173 γ-H2A.X positive cells
  fold change of mean value intensity of γ-H2A.X, treated vs untreated: five-fold
BV-173 cells; treated cells, 1.8 % in the untreated controls
  hyper-γ-H2A.X-positive cells among γ-H2A.X-positive cells: ~6.5%
[2]
  phosphorylation of Chk1 (Ser345), Cdc25c (Ser216), Cdc2 (Tyr 15) and phospho-H2A.X: did not induce protein phosphorylation changes
[3]; BV-173 0.05-0.2 μM, NALM-6 0.1-1 μM, 24 h
  phosphorylated forms of Chk1 (Ser317 and Ser345): dose-dependently increased
[3]; Western blot and immunofluorescence, 18, 24, 30, 48 h at dose near IC50
  γ-H2A.X level: time-dependently increase of γ-H2A.X
[3]; after 3 h of treatment, BV-173 and NALM-6, vs untreated
  auto-phosphorylated form of Chk1 (Ser296): drastically reduced
[3]; dose- and time-dependent, BV-173 0.05-0.2 μM, NALM-6 0.1-1 μM
  phosphorylated Cdc25c (Ser216) and Cdc2 (Tyr 15) levels: decreased levels of phosphorylated Cdc25c (Ser216) and Cdc2 (Tyr 15)
